The results in this text go back to US8530461B2 (Boehringer Ingelheim International GmbH, priority 2011, dated 2013).

The structures appear in SMILES notation.

The term IC50 denotes the midpoint of a concentration-inhibition curve.

In this assay the target is T1, human ACC2 (Homo sapiens, UniProt O00763).
T1 construct: made in house; host or cells: insect cells (baculoviral expression system)
T1 sequence (O00763 129-2458 limits assumed): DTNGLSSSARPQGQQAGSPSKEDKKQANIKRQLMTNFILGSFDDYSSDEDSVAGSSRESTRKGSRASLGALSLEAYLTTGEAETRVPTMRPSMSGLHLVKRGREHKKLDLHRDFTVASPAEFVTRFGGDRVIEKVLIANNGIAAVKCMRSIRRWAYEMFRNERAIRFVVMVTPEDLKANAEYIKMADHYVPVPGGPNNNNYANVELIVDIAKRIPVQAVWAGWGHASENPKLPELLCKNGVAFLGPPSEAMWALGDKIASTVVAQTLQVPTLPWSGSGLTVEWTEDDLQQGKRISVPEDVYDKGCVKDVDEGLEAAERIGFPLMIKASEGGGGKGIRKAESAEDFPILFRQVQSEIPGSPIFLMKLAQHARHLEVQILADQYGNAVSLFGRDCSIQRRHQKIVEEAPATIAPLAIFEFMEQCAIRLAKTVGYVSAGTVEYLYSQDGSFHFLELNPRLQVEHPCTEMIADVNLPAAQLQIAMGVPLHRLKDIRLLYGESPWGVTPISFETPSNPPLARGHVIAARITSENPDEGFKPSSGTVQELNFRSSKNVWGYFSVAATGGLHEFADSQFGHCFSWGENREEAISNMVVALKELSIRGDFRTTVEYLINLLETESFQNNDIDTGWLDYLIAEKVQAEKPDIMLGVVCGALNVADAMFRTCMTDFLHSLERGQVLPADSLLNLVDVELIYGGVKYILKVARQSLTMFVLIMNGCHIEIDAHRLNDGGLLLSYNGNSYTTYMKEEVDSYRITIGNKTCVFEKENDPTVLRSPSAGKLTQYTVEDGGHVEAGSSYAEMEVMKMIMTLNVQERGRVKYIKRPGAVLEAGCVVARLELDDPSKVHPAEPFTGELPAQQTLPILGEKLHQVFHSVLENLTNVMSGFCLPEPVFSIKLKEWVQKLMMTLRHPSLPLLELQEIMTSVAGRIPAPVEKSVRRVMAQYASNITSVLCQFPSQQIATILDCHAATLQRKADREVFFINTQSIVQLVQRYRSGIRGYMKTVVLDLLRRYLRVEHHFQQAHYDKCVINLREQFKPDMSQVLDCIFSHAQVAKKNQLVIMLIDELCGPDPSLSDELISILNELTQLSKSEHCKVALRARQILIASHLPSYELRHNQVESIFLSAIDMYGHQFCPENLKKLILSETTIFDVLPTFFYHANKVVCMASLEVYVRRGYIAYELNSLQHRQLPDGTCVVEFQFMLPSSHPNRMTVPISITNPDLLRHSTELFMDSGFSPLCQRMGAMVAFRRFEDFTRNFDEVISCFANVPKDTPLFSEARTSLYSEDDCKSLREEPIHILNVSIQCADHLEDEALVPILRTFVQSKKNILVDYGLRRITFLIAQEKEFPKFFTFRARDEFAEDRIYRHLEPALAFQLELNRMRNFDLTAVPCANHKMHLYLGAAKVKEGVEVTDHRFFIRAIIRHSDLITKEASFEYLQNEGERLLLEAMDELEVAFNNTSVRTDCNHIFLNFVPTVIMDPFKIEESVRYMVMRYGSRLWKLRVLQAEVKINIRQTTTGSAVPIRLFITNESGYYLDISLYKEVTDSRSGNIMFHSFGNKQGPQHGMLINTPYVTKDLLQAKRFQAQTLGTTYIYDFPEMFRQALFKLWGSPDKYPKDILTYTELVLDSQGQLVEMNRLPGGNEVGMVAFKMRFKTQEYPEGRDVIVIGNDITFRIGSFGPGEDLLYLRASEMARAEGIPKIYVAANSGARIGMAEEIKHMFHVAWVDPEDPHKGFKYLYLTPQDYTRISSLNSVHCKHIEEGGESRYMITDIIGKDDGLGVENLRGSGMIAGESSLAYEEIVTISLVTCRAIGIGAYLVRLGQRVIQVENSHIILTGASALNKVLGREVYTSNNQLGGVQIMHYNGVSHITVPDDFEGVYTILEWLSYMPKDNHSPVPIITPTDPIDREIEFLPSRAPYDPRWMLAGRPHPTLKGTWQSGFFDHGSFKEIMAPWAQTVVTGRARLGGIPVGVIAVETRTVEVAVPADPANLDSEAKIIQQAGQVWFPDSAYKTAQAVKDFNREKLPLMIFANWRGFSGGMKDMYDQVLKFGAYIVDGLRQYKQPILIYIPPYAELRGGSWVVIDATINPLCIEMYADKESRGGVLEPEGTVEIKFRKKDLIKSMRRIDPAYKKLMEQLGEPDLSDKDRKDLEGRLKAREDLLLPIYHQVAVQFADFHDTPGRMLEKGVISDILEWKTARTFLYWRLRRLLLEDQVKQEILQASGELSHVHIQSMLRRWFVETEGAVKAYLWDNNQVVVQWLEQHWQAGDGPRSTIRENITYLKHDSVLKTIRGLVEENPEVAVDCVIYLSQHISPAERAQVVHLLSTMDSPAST
The experiment in a line: ACC2 assay, spectrophotometric 384 well assay (NADH-linked, coupled lactate dehydrogenase/pyruvate kinase). Type of assay: biochemical. Particulars: ACC2 assay; human ACC2 construct lacking 128 N-terminal amino acids; 25° C., 340 nm, 15 minutes; read-out: IC50. Put shortly: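 N-terminally truncated (Δ128) human ACC2 expressed in baculovirus/insect cells; ADP formation coupled via pyruvate kinase/lactate dehydrogenase to NADH consumption, pH 7.5, 25 mM KHCO3, 1% DMSO. Reaction started with NADH, acetyl-CoA and ATP (500 uM f.c.); A340 slope over 15 min at 25° C, IC50 by four-parameter fit after subtracting no-acetyl-CoA controls.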
For the compound `CC(=O)NC(C)c1ccc(N2CC(Oc3ccnc(OCC(F)F)c3)C2)cc1` (stereo not shown) [Example 11.6], the half-inhibitory concentration (IC50) was determined as 150 nM.

Consider `CC(C)COc1cc(OC2CN(c3ccc(C(C)NC(=O)C4CC4)cc3)C2)ccn1` (stereo not shown) [Example 11.7], for which the IC50 worked out at 230 nM.

Turning to `CC(=O)N[C@@H](C)c1ccc(N2CC(Oc3cccc(N(C)CC(C)(C)O)n3)C2)cc1` [Example 12.1, (S)—N-{1-[4-(3-{6-[(2-Hydroxy-2-methyl-propyl)-methyl-amino]-pyridin-2-yloxy}-azetidin-1-yl)-phenyl]ethyl}-acetamide], the IC50 stood at 810 nM.

Regarding `CC(=O)N[C@@H](C)c1ccc(N2CC(Oc3cccc(OCC4CC4)n3)C2)cc1` [Example 12.2], the IC50 came out at 1380 nM.

Consider `CCCOc1cccc(OC2CN(c3ccc([C@H](C)NC(C)=O)cc3)C2)n1` [Example 12.3], for which the IC50 was 730 nM.

Take `CC(=O)N[C@@H](C)c1ccc(N2CC(Oc3cccc(N4CCC(C)CC4)n3)C2)cc1` [Example 12.4]: the IC50 came to 220 nM.

As for `CC(=O)N[C@@H](C)c1ccc(N2CC(Oc3cccc(C)n3)C2)cc1` [Example 12.5], the IC50 was 530 nM.

As for `CC(=O)N[C@@H](C)c1ccc(N2CC(Oc3cccc(N(C)C)n3)C2)cc1` [Example 12.6], the half-inhibitory concentration (IC50) turned out to be 90 nM.

For the compound `CC(=O)N[C@@H](C)c1ccc(N2CC(Oc3cccc(OC4CCC4)n3)C2)cc1` [Example 12.7], the IC50 was found to be 310 nM.

On to `CC(=O)N[C@@H](C)c1ccc(N2CC(Oc3cccc(OC4CCOC4)n3)C2)cc1` (stereo partly shown) [Example 12.8], for which the IC50 is 1750 nM.

For `CC(=O)N[C@@H](C)c1ccc(N2CC(Oc3cccc(OC(C)C)n3)C2)cc1` [Example 12.9], the IC50 is 490 nM.

With `CC(=O)N[C@@H](C)c1ccc(N2CC(Oc3cccc(C4CC4)n3)C2)cc1` [Example 12.10], the IC50 came out at 450 nM.

Consider `CCc1cccc(OC2CN(c3ccc([C@H](C)NC(C)=O)cc3)C2)n1` [Example 12.11], for which the IC50 amounted to 330 nM.

`CC(=O)N[C@@H](C)c1ccc(N2CC(Oc3cccc(C(F)F)n3)C2)cc1` [Example 12.12]: the IC50 is 100 nM.

`CC(=O)N[C@@H](C)c1ccc(N2CC(Oc3cccc(C4CCCC4)n3)C2)cc1` [Example 12.13]: the IC50 came out at 180 nM.

As to `CC(=O)N[C@@H](C)c1ccc(N2CC(Oc3cccc(C4CCC4)n3)C2)cc1` [Example 12.14], the IC50 was 220 nM.

`CC(=O)N[C@@H](C)c1ccc(N2CC(Oc3cccc(N4CCOCC4)n3)C2)cc1` [Example 12.15]: the IC50 turned out to be 830 nM.

As to `CCOc1cccc(OC2CN(c3ccc([C@H](C)NC(C)=O)cc3)C2)n1` [Example 12.16], the IC50 worked out at 380 nM.

On to `CC(=O)N[C@@H](C)c1ccc(N2CC(Oc3cccc(C(C)(C)C)n3)C2)cc1` [Example 12.17], for which the IC50 came to 50 nM.

Take `CC(=O)N[C@@H](C)c1ccc(N2CC(Oc3cccc(OCC4CC4(F)F)n3)C2)cc1` (stereo partly shown) [Example 12.18]: the half-maximal inhibitory concentration (IC50) worked out at 650 nM.

On to `CC(=O)N[C@@H](C)c1ccc(N2CC(Oc3cccc(C(C)C)n3)C2)cc1` [Example 12.19], for which the IC50 is 230 nM.

`CC(=O)N[C@@H](C)c1ccc(N2CC(Oc3ccnc(N4CCOCC4)n3)C2)cc1` [Example 13.1, (S)—N-(1-{4-[3-(2-Morpholin-4-yl-pyrimidin-4-yloxy)-azetidin-1-yl]-phenyl}-ethyl)-acetamide]: the IC50 came out at 350 nM.

With `CC(=O)N[C@@H](C)c1ccc(N2CC(Oc3ccnc(N4CCCC4)n3)C2)cc1` [Example 13.2, (S)—N-(1-{4-[3-(2-Pyrrolidin-1-yl-pyrimidin-4-yloxy)-azetidin-1-yl]-phenyl}-ethyl)-acetamide], the 50% inhibitory concentration (IC50) came to 60 nM.

With `COc1cccc(OC2CN(c3ccc([C@H](C)NC(C)=O)cc3)C2)n1` [Example 14.1, (S)—N-(1-{4-[3-(6-Methoxy-pyridin-2-yloxy)-azetidin-1-yl]-phenyl}-ethyl)-acetamide], the IC50 was found to be 380 nM.

For `CC(=O)N[C@@H](C)c1ccc(N2CC(Oc3cccc(C(F)(F)F)n3)C2)cc1` [Example 14.2], the IC50 is 60 nM.

Regarding `CC(=O)N[C@@H](C)c1ccc(N2CC(Oc3ccnc(C)n3)C2)cc1` [Example 14.3, (S)—N-(1-{4-[3-(2-Methyl-pyrimidin-4-yloxy)-azetidin-1-yl]-phenyl}-ethyl)-acetamide], the IC50 is 980 nM.

Consider `CC(=O)NC(C)(C)c1ccc(N2CC(Oc3ccc(OCC4CC4)cc3)C2)cc1` [Example 15.1, N-(1-{4-[3-(4-Cyclopropylmethoxy-phenoxy)-azetidin-1-yl]-phenyl}-1-methyl-ethyl)-acetamide], for which the IC50 came out at 910 nM.

Consider `COCCOc1ccc(OC2CN(c3ccc([C@H](C)NC(=O)c4sc(NC(C)=O)nc4C)cc3)C2)cc1` [Example 16.1, (S)-2-Acetylamino-4-methyl-thiazole-5-carboxylic acid [1-(4-{3-[4-(2-methoxy-ethoxy)-phenoxy]-azetidin-1-yl}-phenyl)-ethyl]-amide], for which the IC50 was determined as 130 nM.
